The values below come from PubChem BioAssay (NCI).

The structures appear in SMILES notation.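 Method: 48-hour compound exposure of cells in 96-well plates, five concentrations, linear interpolation of endpoints. GI50 marks 50% less growth. TGI marks complete inhibition of growth.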

Some test systems named below: HCT-116 colon; U251 CNS; SK-MEL-28 melanoma; CCRF-CEM leukemia; NCI-H23 lung; NCI-H460 lung; NCI-H226 lung; LOX IMVI melanoma; HOP-62 NSCLC.
Test in all cases: inhibition of tumour cell growth, NCI panel, 48 h

Turning to `COc1ccc(NC(=S)c2ccoc2C)cc1CC(=O)OC(C)C`, the TGI in the test on HCT-116 colon, with U251 CNS, in the test on SK-MEL-28 melanoma, in the test with CCRF-CEM leukemia, in the test on NCI-H23 lung and in the test with NCI-H460 lung was over 100 µM each time. Besides, the values for the TGI with NCI-H226 lung and in the test on LOX IMVI melanoma were 68 µM and 39.2 µM, respectively.
Take `C[C@]12CCC(=O)CC1CCCC2=O` (some centres undefined): the TGI in the test on HCT-116 colon, in the test on HOP-62 NSCLC, in the test on U251 CNS, in the test with SK-MEL-28 melanoma, in the test with CCRF-CEM leukemia and in the test with NCI-H23 lung was over 100 µM each time. Besides, the TGI in the test with NCI-H460 lung and in the test with LOX IMVI melanoma was over 100 µM in each case.
With `CCOC(=O)/C(O)=C(/C(=O)OC)c1ccc(Cl)cc1`, the TGI with HOP-62 NSCLC, in the test with U251 CNS, with SK-MEL-28 melanoma, in the test on CCRF-CEM leukemia, in the test with NCI-H23 lung and in the test on NCI-H460 lung was over 100 µM each time. The same compound had a TGI in the test with LOX IMVI melanoma of over 100 µM.
With `CCCN(CCC)C(=O)C(=O)c1c(N)[nH]n(-c2ccccc2)c1=O`, the TGI in the test on HCT-116 colon, in the test on U251 CNS, in the test with CCRF-CEM leukemia, with NCI-H23 lung, with NCI-H460 lung and in the test with NCI-H226 lung was over 100 µM each time. In addition, the TGI in the test on LOX IMVI melanoma is over 100 µM.
As to `COc1cccc(NC(=O)CC(=O)N2N=C(N3c4ccccc4Sc4ccccc43)CC2c2ccccc2)c1` (centres undefined), the TGI with HCT-116 colon, in the test with HOP-62 NSCLC, in the test with U251 CNS, with SK-MEL-28 melanoma, in the test on NCI-H23 lung and in the test on NCI-H460 lung was over 100 µM in each case. The TGI in the test on NCI-H226 lung and with LOX IMVI melanoma was over 100 µM each time.
Consider `CC(=O)[CH-]C(=O)c1ccccc1.CC(=O)[CH-]C(=O)c1ccccc1.CC(=O)[CH-]C(=O)c1ccccc1.[In+3]`, for which the GI50 with HCT-116 colon is 9.32 µM; in the test with U251 CNS, 22.8 µM; in the test on SK-MEL-28 melanoma it was 34.2 µM; in the test with CCRF-CEM leukemia, 11.6 µM; in the test on NCI-H23 lung it was 30.9 µM; with NCI-H460 lung it was 16.6 µM. The GI50 with NCI-H226 lung is 24.7 µM; in the test on LOX IMVI melanoma, 11 µM. In addition, the TGI with HCT-116 colon was over 100 µM; in the test with U251 CNS, over 100 µM; in the test with SK-MEL-28 melanoma it was over 100 µM; in the test on CCRF-CEM leukemia it was 49.4 µM; in the test with NCI-H23 lung, over 100 µM; with NCI-H460 lung, over 100 µM. The TGI was 84.3 µM in the test with NCI-H226 lung and over 100 µM with LOX IMVI melanoma.
For `O=C1/C(=N\O)S(=O)(=O)c2ccccc21`, the TGI with HCT-116 colon, with HOP-62 NSCLC, in the test with U251 CNS, in the test on CCRF-CEM leukemia, in the test with NCI-H460 lung and in the test on NCI-H226 lung was over 100 µM each time. The TGI in the test on LOX IMVI melanoma was over 100 µM.
With `COc1cccc(NC(=O)CC(=O)N2N=C(n3ccc4ccccc43)CC2c2ccccc2)c1` (centres undefined), the TGI in the test on HCT-116 colon, with HOP-62 NSCLC, in the test on U251 CNS, with SK-MEL-28 melanoma, with CCRF-CEM leukemia and with NCI-H23 lung was over 100 µM in each case. Besides, the TGI in the test on NCI-H460 lung and in the test with LOX IMVI melanoma was over 100 µM each time.
As to `COc1ccc(C(=O)/C=C/c2cccc(Nc3ccnc4cc(Cl)ccc34)c2)cc1`, the GI50 is 0.844 µM in the test with HCT-116 colon; 1.44 µM in the test with HOP-62 NSCLC; 1.74 µM with U251 CNS; 2.88 µM in the test on CCRF-CEM leukemia; 1.49 µM in the test on NCI-H23 lung; 2.23 µM with NCI-H460 lung. Also, the GI50 with NCI-H226 lung was 1.78 µM; with LOX IMVI melanoma it was 1.58 µM. The TGI with HCT-116 colon is 12.2 µM; in the test with HOP-62 NSCLC, 3.99 µM; with U251 CNS, 4.82 µM; with CCRF-CEM leukemia it was over 100 µM; in the test on NCI-H23 lung, over 100 µM; in the test with NCI-H460 lung it was over 100 µM. Besides, the TGI with NCI-H226 lung was over 100 µM; with LOX IMVI melanoma it was 11.7 µM.
As to `NC(=O)NC12CC3CC(CC(F)(C3)C1)C2`, the TGI in the test with HCT-116 colon, in the test on HOP-62 NSCLC, with U251 CNS, in the test on SK-MEL-28 melanoma, in the test with CCRF-CEM leukemia and in the test on NCI-H23 lung was over 100 µM in each case. The TGI with NCI-H460 lung and in the test with LOX IMVI melanoma was over 100 µM in each case.
`O=C(N/C(=C\c1ccc(/C=C(\NC(=O)c2ccccc2)c2nc3ccccc3[nH]2)cc1)c1nc2ccccc2[nH]1)c1ccccc1`: the TGI with HCT-116 colon, in the test on HOP-62 NSCLC, in the test on U251 CNS, in the test on SK-MEL-28 melanoma, with CCRF-CEM leukemia and with NCI-H23 lung was over 100 µM in each case. The TGI with NCI-H460 lung and with LOX IMVI melanoma was over 100 µM each time.
Turning to `O=C(O)C(CS)NCc1c2ccccc2nc2ccccc12` (centres undefined), the TGI in the test with HCT-116 colon was over 100 µM; in the test on U251 CNS, over 100 µM; in the test on SK-MEL-28 melanoma, over 100 µM; in the test with CCRF-CEM leukemia it was 74.6 µM; in the test with NCI-H23 lung it was over 100 µM; with NCI-H460 lung, over 100 µM. Moreover, the TGI in the test with NCI-H226 lung and in the test with LOX IMVI melanoma was over 100 µM throughout.
